From patent US9877999B2, “Methods for treating metastatic stage prostate cancer” (Ferring International SA, priority 2008, dated 2018)
“And” between values parts separate entries of the source, which are not always exact repeats. Identical values can stand only once.

Key:
Assay type in all cases: in vivo, human
[1] = tested on: follicle stimulating hormone (FSH); test: Serum FSH levels over time (clinical study CS21); conditions: leuprolide 7.5 mg group
Protocol: (§1) The study also investigated whether degarelix is safe and effective with respect to achieving and maintaining testosterone suppression to castrate levels, evaluated as the proportion of patients with testosterone suppression ≦0.5 ng/mL during 12 months of treatment. […] The study also evaluated the pharmacokinetics of the degarelix dosing regimens investigated. Finally, the study examined the effects of using the degarelix treatment on patients suffering from different stages of cancer.
(§2) Patients in two treatment groups received a degarelix starting dose of 240 mg at a concentration of 40 mg/mL (240@40) on day 0 administered as two equivalent subcutaneous (s.c.) injections of 120 mg each. Thereafter, patients received 12 additional single s.c. degarelix doses of either 80 mg at a concentration of 20 mg/mL (80@20: degarelix 240/80 mg group) or 160 mg at a concentration of 40 mg/mL (160@40: degarelix 240/160 mg group) administered s.c. every 28 days.
(§3) The secondary efficacy endpoints were: the proportion of patients with testosterone surge during the first 2 weeks of treatment; the proportion of patients with testosterone level ≦0.5 ng/mL at day 3; the percentage change in PSA from baseline to day 28; the probability of testosterone ≦0.5 ng/mL from day 56 through day 364; the levels of serum testosterone, LH, FSH and PSA over time through the study; the time to PSA failure, defined as two consecutive increases of 50%, and at least 5 ng/mL as compared to nadir; degarelix concentration over the first month and trough levels at day 308 and 336; the frequency and size of testosterone increases at day 255 and/or 259 compared to the testosterone level at day 252; the quality of life on days 0, 28, 84, 168 and end of study visit; the frequency and intensity of hot flushes experienced (scored daily from study start until end of study visit). In addition, two further secondary endpoints were added: the probability of sufficient testosterone response from day 28 through day 364 (a patient was considered to have insufficient testosterone response if they had one testosterone value >1.0 ng/mL or two consecutive testosterone values >0.5 ng/mL at day 28 onwards); and the percentage change in PSA from baseline to day 14.

[2] = tested on: prostate-specific antigen (PSA); test: Serum PSA level change in prostate cancer patients (clinical study CS21); conditions: leuprolide 7.5 mg patients who did not receive anti-androgen therapy
Protocol: All secondary efficacy endpoints were analyzed for both the ITT and PP analysis sets, unless otherwise stated. The proportion of patients with testosterone surge during the first 2 weeks of treatment was analyzed using Fisher's exact test. […] The percentage change in PSA from baseline to day 28 endpoint was analyzed by a Wilcoxon test.

testosterone = conditions: leuprolide 7.5 mg group
Protocol: The study also evaluated the pharmacokinetics of the degarelix dosing regimens investigated. Finally, the study examined the effects of using the degarelix treatment on patients suffering from different stages of cancer. […] The primary efficacy endpoint was the probability of testosterone levels remaining ≦0.5 ng/mL from day 28 through day 364. […] The primary efficacy endpoint was analyzed for both the ITT and PP analysis sets, with the ITT analysis set considered primary. The primary efficacy endpoint was analyzed using the Kaplan Meier method. For each of the three treatment groups, testosterone response rates with 95% confidence interval (CI) were calculated by log-log transformation of survivor function. […] All secondary efficacy endpoints were analyzed for both the ITT and PP analysis sets, unless otherwise stated. […] The percentage change in PSA from baseline to day 28 endpoint was analyzed by a Wilcoxon test.

[3] = tested on: serum alkaline phosphatase (S-ALP); test: S-ALP analysis in prostate cancer patients (clinical study CS21); conditions: Leuprolide 7.5 mg
Protocol: Patients with histologically confirmed adenocarcinoma of the prostate (all stages), for whom androgen deprivation therapy was indicated were recruited. Baseline characteristics were well balanced between groups. Approximately half of patients had locally advanced (29.2%) or metastatic (20.5%) disease at baseline. […] Patients receiving leuprolide could also receive bicalutamide for clinical flare protection. The S-ALP levels were measured in each patient at various time points, by taking a blood sample and analyzing for S-ALP. S-ALP levels were measured using a standardized colorimetric assay based on the p-nitrophenyl phosphate AMP buffer method. The normal range for S-ALP is 44-147 IU/L. The S-ALP values in non-metastatic patients serve as controls. An ANOVA analysis with treatment and day as factors and baseline value as covariate was used to determine between treatment differences at Day 364. A repeated measures analysis (incorporating all time points from Day 112) with treatment and day as factors and baseline value as covariate was used to assess between treatment differences from Day 112 to Day 364.

[4] = tested on: prostate-specific antigen (PSA); test: PSA failure in prostate cancer patients (clinical study CS21); conditions: for proportion of PSA failures: leuprolide 7.5 mg
Protocol: For this analysis, PSA failure (a secondary endpoint) was defined as two consecutive increases in PSA of 50% and 5 ng/mL compared with nadir. The time to PSA failure was defined as the number of days from first dosing to where an increase in serum PSA of 50% from nadir and 5 ng/mL, measured on two consecutive occasions at least two weeks apart, was noted. The second occasion was the time point of meeting the criterion. PSA failure rates were also analyzed by disease stage and baseline PSA level.
as §3
The secondary endpoints, probability of testosterone ≦0.5 ng/mL from day 56 through day 364, time to PSA failure, and probability of sufficient testosterone response from day 28 through day 364 were analyzed by the Kaplan-Meier method.

luteinizing hormone (LH) = test: Serum LH levels over time (clinical study CS21); conditions: leuprolide 7.5 mg group
Protocol: as §1, §2, §3

## CCNC(=O)[C@@H]1CCCN1C(=O)[C@H](CCCNC(=N)N)NC(=O)[C@H](CC(C)C)NC(=O)[C@@H](CC(C)C)NC(=O)[C@H](Cc1ccc(O)cc1)NC(=O)[C@H](CO)NC(=O)[C@H](Cc1c[nH]c2ccccc12)NC(=O)[C@H](Cc1c[nH]cn1)NC(=O)[C@@H]1CCC(=O)N1 [leuprolide, reference compound]
[1]; by day 14
  FSH level: 2.0 IU/L
[1]; day 1
  FSH level, peak: 22.5 IU/L
  increase of FSH from baseline: 146%
[1]; from around day 56 until day 364
  Median FSH plateau: approximately 4.40 IU/L
[2]; day 14
  PSA median percentage reduction from baseline: 15.3%
[2]; day 28
  PSA median percentage reduction from baseline: 61.7%
testosterone
  Kaplan-Meier estimate of the probability of testosterone ≦0.5 ng/mL from day 28 to day 364: 96.4%
  patients exhibiting testosterone suppression on day 3: no patients
testosterone; observed cases analysis
  overall proportion of patients with testosterone ≦0.5 ng/mL from day 28 to day 364: 96.0%
[3]; Localized, Day 112
  S-ALP mean change from baseline: +5 IU/L
[3]; Localized, Day 224
  S-ALP mean change from baseline: +7 IU/L
[3]; Localized, Day 364
  S-ALP mean change from baseline: +9 IU/L
[3]; Locally advanced, Day 112
  S-ALP mean change from baseline: −1 IU/L
[3]; Locally advanced, Day 224
  S-ALP mean change from baseline: −1 IU/L
[3]; Locally advanced, Day 364
  S-ALP mean change from baseline: +6 IU/L
[3]; Metastatic (Hb < 130 g/L), Day 112
  S-ALP mean change from baseline: −30 IU/L
[3]; Metastatic (Hb < 130 g/L), Day 224
  S-ALP mean change from baseline: −70 IU/L
[3]; Metastatic (Hb < 130 g/L), Day 364
  S-ALP mean change from baseline: −10 IU/L
[3]; Metastatic, Day 112
  S-ALP mean change from baseline: −20 IU/L
[3]; Metastatic, Day 224
  S-ALP mean change from baseline: −50 IU/L
[3]; Metastatic, Day 364
  S-ALP mean change from baseline: 0 IU/L
[3]; baseline PSA 10-20 ng/mL, Day 112
  S-ALP mean change from baseline: +5 IU/L
[3]; baseline PSA 10-20 ng/mL, Day 224
  S-ALP mean change from baseline: +8 IU/L
[3]; baseline PSA 10-20 ng/mL, Day 364
  S-ALP mean change from baseline: +8 IU/L
[3]; baseline PSA 20-50 ng/mL, Day 112
  S-ALP mean change from baseline: +5 IU/L
[3]; baseline PSA 20-50 ng/mL, Day 224
  S-ALP mean change from baseline: +8.5 IU/L
[3]; baseline PSA 20-50 ng/mL, Day 364
  S-ALP mean change from baseline: +11 IU/L
[3]; baseline PSA < 10 ng/mL, Day 112
  S-ALP mean change from baseline: +4.5 IU/L
[3]; baseline PSA < 10 ng/mL, Day 224
  S-ALP mean change from baseline: +6 IU/L
[3]; baseline PSA < 10 ng/mL, Day 364
  S-ALP mean change from baseline: +7.5 IU/L
[3]; baseline PSA > 50 ng/mL, Day 112
  S-ALP mean change from baseline: −40 IU/L
[3]; baseline PSA > 50 ng/mL, Day 224
  S-ALP mean change from baseline: −60 IU/L
[3]; baseline PSA > 50 ng/mL, Day 364
  S-ALP mean change from baseline: +10 IU/L
[4]; leuprolide 7.5 mg group
  probability of completing the study without experiencing PSA failure by day 364: 85.9% and ~85.8%
[4]; patients with baseline PSA>50 ng/mL
  proportion of PSA failures: 40.0%
[4]; patients with metastatic disease at baseline
  proportion of PSA failures: 36.2%
Luteinizing hormone (LH); by day 56, remaining until day 364
  median LH level: 0.035 IU/L
Luteinizing hormone (LH); day 1
  increase of median LH from baseline: > 400%
  median LH level, peak: 31.0 IU/L
